Assay results: US7960352B2, “Anti-cancer activity of Androsace umbellata Merr. extract and contained triterpene saponin” (Sungkyunkwan University Foundation for Corporate …, priority 2005, dated 2011)
In brackets after ≈: the same amount, converted by molar mass.

Assays:
A549 (lung cancer cells) = assay: Inhibition of growth of tumor cells (SRB assay), A549; type: cell-based; settings: 0.01-100 μg/mL, cultured 48 hours
Description: (§1) Cells were cultured in Dulbecco's modified Eagle's medium (hereunder referred to as DMEM) containing 5-10% fetal bovine serum and L-glutamine in an incubator of 37° C. and 5% CO2. Adherent cells were suspended using a trypsin-EDTA solution and isolated and collected for testing.
(§2) The cells were cultured on a 96-well plate, 5×10^3-10^4 cells each. After treating with the extract and the active ingredient at a concentration of 0, 0.01, 0.1, 1, 10 and 100 μg/mL, the cells were cultured for 48 hours. After culturing for […], the culture medium was removed from each well and 200 μL of 10% TCA (trichloroacetic acid) was added. The cells were fixed to the bottom of the plate by letting alone at 4° C. for 1 hour. After fixation, the plate was washed with distilled water for 5-6 times to remove the remaining TCA solution and then completely dried. To the plate was added 200 μL of a staining solution per each well, which was prepared by dissolving 0.4% SRB solution in 1% acetic acid solution. After 30 minutes' staining, the plate was washed with 1% acetic acid solution for 5-6 times to remove excess SRB. The plate was dried at room temperature and 200 μL of 10 mM trisma base solution (unbuffered) was added per each well. After 10 minutes' of shaking using a titer plate shaker to elute out the staining solution, light absorbance was measured at 540 nm using a microplate reader.

[1] = tested on: HCT15 (colon cancer cells); assay: Inhibition of growth of tumor cells (SRB assay), HCT15; type: cell-based; settings: cultured 48 hours; for Inhibitory effect against growth of cancer cells IC50 HCT15: 0.01-100 μg/mL
Description: as §1, §2

[2] = tested on: MCF7 (breast cancer cells); assay: Inhibition of growth of tumor cells (SRB assay), MCF7; type: cell-based; settings: 0.01-100 μg/mL, cultured 48 hours
Description: as §1, §2

SK-OV-3 (cancer cells) = assay: Inhibition of growth of tumor cells (SRB assay), SK-OV-3; type: cell-based; settings: Homo sapiens, SK-OV-3 cells, 0.01-100 μg/mL, cultured 48 hours, read-out: Inhibitory effect against growth of cancer cells IC50 SK-OV-3
Description: as §1, §2

[3] = tested on: MDA-MB-231 (breast cancer cells); assay: Inhibition of growth of tumor cells (SRB assay), MDA-MB-231; type: cell-based; settings: MDA-MB-231 cells, 0.01-100 μg/mL, cultured 48 hours
Description: as §1, §2

[4] = tested on: HeLa (uterine cancer cells); assay: Inhibition of growth of tumor cells (SRB assay), HeLa; type: cell-based; settings: 0.01-100 μg/mL, cultured 48 hours
Description: as §1, §2

[5] = tested on: SK-OV-3 (uterine cancer cells); assay: Inhibition of growth of tumor cells (SRB assay), SK-OV-3; type: cell-based; settings: SK-OV-3 cells, 0.01-100 μg/mL, cultured 48 hours
Description: as §1, §2

mice [6] = assay: Toxicity test, intraperitoneal injection to mice; type: in vivo; settings: for Mice died: intraperitoneal, 20 mg/kg, 10 mice per group, observed 7 days; for Cause of the death of the mice: right after the intraperitoneal injection
Description: (§3) Toxicity test was performed as follows for the Androsace umbellata Merr. extract, fraction thereof and saxifragifolins B and D of the present invention.
(§4) Each of the Androsace umbellata Merr. extract, fraction thereof and saxifragifolins D and B was dissolved in 1% sodium carboxymethlycellulose and diluted with water. The solution was intraperitoneally injected to mice (10 per each group) at a dose of 0, 0.016, 0.8, 4, 20 and 100 mg/kg. […] No mouse died in the Androsace umbellata Merr. extract group. All the 10 mice of the 100 mg/kg Androsace umbellata Merr. fraction group died right after the administration and two died in the 20 mg/kg group. 3 mice died in each of the 20 mg/kg saxifragifolin B and saxifragifolin D groups. No more mice died until the 7th day. […] When the Androsace umbellata Merr. extract, fraction thereof and saxifragifolins D and B were dissolved in corn oil and orally administered at a dose of 1, 10 and 100 mg/kg, no mice died for 7 days.

mice [7] = assay: Toxicity test, oral administration to mice; type: in vivo; settings: orally, in corn oil, 1, 10 and 100 mg/kg, 7 days
Description: as §3, §4

Compound | IC50 (A549 (lung cancer cells); Homo sapiens, read-out: Inhibitory effect against growth of cancer cells IC50 A549) [µg/mL] | IC50 ([1]; Homo sapiens, HCT-15, 0.01-100 μg/mL, read-out: Inhibitory effect against growth of cancer cells IC50 HCT15) [µg/mL] | IC50 ([2]; Homo sapiens, read-out: Inhibitory effect against growth of cancer cells IC50 MCF7) [µg/mL] | IC50 (SK-OV-3 (cancer cells)) [µg/mL] | IC50 ([3]; Homo sapiens, read-out: Inhibitory effect against growth of cancer cells IC50 MDA-MB-231) [µg/mL] | IC50 ([4]; Homo sapiens, read-out: Inhibitory effect against growth of cancer cells IC50 HeLa) [µg/mL] | Inhibitory effect against growth of cancer cells IC50 A549 (A549 (lung cancer cells)) [µg/mL] | Inhibitory effect against growth of cancer cells IC50 HCT15 [1] [µg/mL] | Inhibitory effect against growth of cancer cells IC50 MCF7 [2] [µg/mL] | Inhibitory effect against growth of cancer cells IC50 SK-OV-3 [5] [µg/mL] | Inhibitory effect against growth of cancer cells IC50 MDA-MB-231 [3] [µg/mL] | Inhibitory effect against growth of cancer cells IC50 HeLa [4] [µg/mL] | Mice died (mice [6]) [mice] | Cause of the death of the mice (mice [6]) | Mice died (mice [7])
COc1cccc2c1C(=O)c1c(O)c3c(c(O)c1C2=O)C[C@@](O)(C(=O)CO)C[C@@H]3O[C@H]1C[C@H](N)[C@H](O)[C@H](C)O1 [Doxorubicin, reference compound] | 0.011 ± 0.01 (≈ 0.0202 µM) | 0.014 ± 0.02 (≈ 0.0258 µM) | 0.5 ± 0.02 (≈ 0.92 µM) | 0.77 ± 0.03 (≈ 1.42 µM) | 0.02 ± 0.01 (≈ 0.0368 µM) | 0.21 ± 0.01 (≈ 0.386 µM) |  |  |  |  |  |  |  |  | 
cyclamiretin A 3-O-{β-D-glucopyranosyl-(1→4)-β-D-glucopyranosyl-(1→2)-β-D-xylopyranosyl-(1→2)-β-D-glucopyranosyl-(1→4)-α-L-arabinopyranoside} [Saxifragifolin D] |  |  |  |  |  |  | 0.016 ± 0.01 | 0.558 ± 0.24 | 3.23 ± 0.10 | 6.36 ± 0.12 | 1.32 ± 0.03 | 0.98 ± 0.05 | 3 | hemolysis of red blood cells | no mice died
cyclamiretin A 3-O-{β-D-xylopyranosyl-(1→2)-β-D-glucopyranosyl-(1→4)-β-D-glucopyranosyl-(1→2)-α-L-arabinopyranoside} [Saxifragifolin B] |  |  |  |  |  |  | 0.036 ± 0.02 | 0.183 ± 0.17 | 6.88 ± 0.13 | 8.39 ± 0.23 | 3.02 ± 0.02 | 1.22 ± 0.04 | 3 | hemolysis of red blood cells | no mice died
